In patent US20230087118A1, “IMIDAZO[1,2-a][sequence] DERIVATIVES AND THEIR USE IN THE TREATMENT OF DISEASE” (priority 2019, published 2023):
Structures can show the parent of a compound that is named as a salt.

biological target: T1, IRAK4 (Homo sapiens, UniProt Q9NWZ3); assay: biochemical; conditions: not given
T1 sequence (Q9NWZ3 1-460): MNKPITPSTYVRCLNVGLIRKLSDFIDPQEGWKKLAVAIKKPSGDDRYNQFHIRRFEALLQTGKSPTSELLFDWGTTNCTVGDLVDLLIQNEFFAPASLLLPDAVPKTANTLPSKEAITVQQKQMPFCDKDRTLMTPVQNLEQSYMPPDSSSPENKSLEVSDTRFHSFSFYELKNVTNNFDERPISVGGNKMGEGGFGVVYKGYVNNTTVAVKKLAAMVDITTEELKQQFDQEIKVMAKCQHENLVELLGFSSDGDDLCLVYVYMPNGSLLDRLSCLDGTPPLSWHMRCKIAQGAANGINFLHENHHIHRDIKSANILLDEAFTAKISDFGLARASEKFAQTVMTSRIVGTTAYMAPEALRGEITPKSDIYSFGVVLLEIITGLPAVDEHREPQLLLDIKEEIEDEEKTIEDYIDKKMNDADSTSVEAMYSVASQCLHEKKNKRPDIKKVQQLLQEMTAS

Which IC50 does the source give for `CC(C)Oc1nc2nc([C@]34CC[C@](C)(C3)OC4)cn2cc1C(=O)Nc1cccc(C(F)F)n1` (single isomer, unassigned) [Example 577] here?
Its IC50 is 0.0002 µM.

How did the IC50 turn out when `COc1cc2nc(C3CCOCC3)cn2cc1C(=O)Nc1cccc2ccnn12` [Example 57, 7-Methoxy-N-(pyrazolo[1,5-a]pyridin-7-yl)-2-(tetrahydro-2H-pyran-4-yl)imidazo[1,2-a]pyridine-6-carboxamide] was run?
The IC50 was 0.0041 µM.

`CC1(C)CC(Oc2cc3nc(C45COC(C)(C4)C5)cn3cc2C(=O)Nc2cccn(C(F)F)c2=O)C1` [Example 445, N-(1-(difluoromethyl)-2-oxo-1,2-dihydropyridin-3-yl)-7-(3,3-dimethylcyclobutoxy)-2-(1-methyl-2-oxabicyclo[2.1.1]hexan-4-yl)imidazo[1,2-a]pyridine-6-carboxamide] was tested. Which IC50 did it give?
Its IC50 is 0.0006 µM.

Which IC50 does the source give for `CC(C)Oc1cc2nc(C34CC(C#N)(C3)C4)cn2cc1C(=O)Nc1ccn(C)n1` [Example 404, 2-(3-Cyanobicyclo[1.1.1]pentan-1-yl)-7-isopropoxy-N-(1-methyl-1H-pyrazol-3-yl)imidazo[1,2-a]pyridine-6-carboxamide] here?
The IC50 was 0.0077 µM.

How did the IC50 turn out when `CC(C)Oc1c(C(=O)Nc2cccn(C)c2=O)cn2cc(C34COC(C)(C3)C4)nc2c1Cl` [Example 255, 8-Chloro-7-isopropoxy-N-(1-methyl-2-oxo-1,2-dihydropyridin-3-yl)-2-(1-methyl-2-oxabicyclo[2.1.1]hexan-4-yl)imidazo[1,2-a]pyridine-6-carboxamide] was run?
Its IC50 is 0.158 µM.

With `O=C(Nc1cccc(C(F)(F)F)n1)c1cn2cc(C3CCOCC3)nc2cn1` [Example 82] as the molecule, how does the IC50 read?
Its IC50 is 0.119 µM.

Which IC50 does the source give for `CC(C)Oc1cc2nc([C@]34CC[C@](C)(C3)OC4)cn2cc1C(=O)Nc1cccc(C(F)F)n1` (single isomer, unassigned) [Example 608] here?
The IC50 was 0.0001 µM.

For `COc1nc(C(=O)Nc2cccc(C(F)F)n2)cn2cc(C34CCOC(C)(C3)C4)nc12` [Example 234], which IC50 is on record?
The IC50 was 0.0053 µM.

For `CC(C)Oc1cc2nc(C34COC(C)(C3)C4)cn2cc1C(=O)Nc1ccn(CC#N)n1` [Example 313, N-(1-(cyanomethyl)-1H-pyrazol-3-yl)-7-isopropoxy-2-(1-methyl-2-oxabicyclo[2.1.1]hexan-4-yl)imidazo[1,2-a]pyridine-6-carboxamide], which IC50 is on record?
Its IC50 is 0.0036 µM.

How did the IC50 turn out when `COc1cc2nc(C3CCOCC3)cn2cc1C(=O)Nc1cccc(F)c1F` [Example 113] was run?
Its IC50 is 0.0357 µM.

How did the IC50 turn out when `COc1cnc2c(NC(=O)c3cn4cc(C56COC(C)(C5)C6)nc4c(F)c3OC(C)C)cnn2c1` [Example 407, 8-Fluoro-7-isopropoxy-N-(6-methoxypyrazolo[1,5-a]pyrimidin-3-yl)-2-(1-methyl-2-oxabicyclo[2.1.1]hexan-4-yl)imidazo[1,2-a]pyridine-6-carboxamide] was run?
The IC50 was 0.0052 µM.

`CCc1ncsc1NC(=O)c1cn2cc(C34CCC(C)(C3)OC4)nc2cc1OC(C)C` (stereo not shown) [Example 511, N-(4-ethylthiazol-5-yl)-7-isopropoxy-2-(1-methyl-2-oxabicyclo[2.2.1]heptan-4-yl)imidazo[1,2-a]pyridine-6-carboxamide] was tested. Which IC50 did it give?
Its IC50 is 0.0042 µM.

With `CCOc1nc(C(=O)Nc2ccn(CC)n2)cn2cc(C34COC(C)(C3)C4)nc12` [Example 501, 8-Ethoxy-N-(1-ethyl-1H-pyrazol-3-yl)-2-(1-methyl-2-oxabicyclo[2.1.1]hexan-4-yl)imidazo[1,2-a]pyrazine-6-carboxamide] as the molecule, how does the IC50 read?
Its IC50 is 0.0069 µM.

With `Cn1ccc(NC(=O)c2cn3cc([C@@]45CC[C@@](C)(C4)OC5)nc3cc2OC2CCC2)n1` (single isomer, unassigned) [Example 610] as the molecule, how does the IC50 read?
Its IC50 is 0.0008 µM.

`COCCn1ccc(NC(=O)c2cn3cc(C45COC(C)(C4)C5)nc3cc2OC(C)C)n1` [Example 314, 7-Isopropoxy-N-(1-(2-methoxyethyl)-1H-pyrazol-3-yl)-2-(1-methyl-2-oxabicyclo[2.1.1]hexan-4-yl)imidazo[1,2-a]pyridine-6-carboxamide] was tested. Which IC50 did it give?
The IC50 was 0.0258 µM.

How did the IC50 turn out when `CC12CCC(c3cn4cc(C(=O)Nc5cccn(C(F)F)c5=O)c(OC5CCC5)cc4n3)(CO1)C2` (stereo not shown) [Example 538, 7-Cyclobutoxy-N-(1-(difluoromethyl)-2-oxo-1,2-dihydropyridin-3-yl)-2-(1-methyl-2-oxabicyclo[2.2.1]heptan-4-yl)imidazo[1,2-a]pyridine-6-carboxamide] was run?
Its IC50 is 0.0003 µM.

How did the IC50 turn out when `COc1ncccc1NC(=O)c1cn2cc([C@]34CC[C@](C)(C3)OC4)nc2nc1OC(C)C` (single isomer, unassigned) [Example 579] was run?
Its IC50 is 0.0004 µM.

For `O=C(Nc1cccc(C(F)F)n1)c1cn2cc(C3CC3)nc2cc1OC1CCOC1` (stereo not shown) [Example 468, 2-Cyclopropyl-N-(6-(difluoromethyl)pyridin-2-yl)-7-((tetrahydrofuran-3-yl)oxy)imidazo[1,2-a]pyridine-6-carboxamide], which IC50 is on record?
The IC50 was 0.007 µM.

With `CC12CC(c3cn4cc(C(=O)Nc5ccn(CC#N)n5)c(OC5CCC5)cc4n3)(CO1)C2` [Example 527, N-(1-(cyanomethyl)-1H-pyrazol-3-yl)-7-cyclobutoxy-2-(1-methyl-2-oxabicyclo[2.1.1]hexan-4-yl)imidazo[1,2-a]pyridine-6-carboxamide] as the molecule, how does the IC50 read?
The IC50 was 0.0044 µM.

Which IC50 does the source give for `COc1ccn2ncc(NC(=O)c3cn4cc(C56COC(C)(C5)C6)nc4cc3OC(C)C)c2n1` [Example 300, 7-Isopropoxy-N-(5-methoxypyrazolo[1,5-a]pyrimidin-3-yl)-2-(1-methyl-2-oxabicyclo[2.1.1]hexan-4-yl)imidazo[1,2-a]pyridine-6-carboxamide] here?
Its IC50 is 0.0022 µM.

Which IC50 does the source give for `CCOc1cc(C(=O)Nc2cccc(OC)n2)cn2cc(C3CCCOC3)nc12` (stereo not shown) [Example 53, 8-Ethoxy-N-(6-methoxypyridin-2-yl)-2-(tetrahydro-2H-pyran-3-yl)imidazo[1,2-a]pyridine-6-carboxamide] here?
Its IC50 is 0.0352 µM.

`COc1cc2nc(C3CCOCC3)cn2cc1C(=O)Nc1ccc(O)nc1OC` [Example 188] was tested. Which IC50 did it give?
Its IC50 is 0.326 µM.

How did the IC50 turn out when `COc1cc2nc(C3CCOCC3)cn2cc1C(=O)Nc1ccn(CC2CC2)n1` [Example 184] was run?
The IC50 was 0.208 µM.

Which IC50 does the source give for `CC(C)Oc1nc2nc([C@@]34CC[C@@](C)(C3)OC4)cn2cc1C(=O)Nc1cnn2cc(F)cnc12` (single isomer, unassigned) [Example 630] here?
The IC50 was 0.0003 µM.

Which IC50 does the source give for `COc1cc2nc(C3CC34CCCCO4)cn2cc1C(=O)Nc1ccccn1` (stereo not shown) [Example 6] here?
The IC50 was 0.151 µM.

How did the IC50 turn out when `Cn1cc(-c2cccc(NC(=O)c3cn4cc(C56COC(C)(C5)C6)nc4cc3OC3CCC3)n2)cn1` [Example 520, 7-Cyclobutoxy-N-(6-(1-methyl-1H-pyrazol-4-yl)pyridin-2-yl)-2-(1-methyl-2-oxabicyclo[2.1.1]hexan-4-yl)imidazo[1,2-a]pyridine-6-carboxamide] was run?
The IC50 was 0.0001 µM.

For `CC(C)Oc1cc2nc(C34CCC(C)(C3)OC4)cn2cc1C(=O)Nc1cccn(C)c1=O` (stereo not shown) [Example 505, 7-Isopropoxy-N-(1-methyl-2-oxo-1,2-dihydropyridin-3-yl)-2-(1-methyl-2-oxabicyclo[2.2.1]heptan-4-yl)imidazo[1,2-a]pyridine-6-carboxamide], which IC50 is on record?
Its IC50 is 0.0005 µM.

Which IC50 does the source give for `CC(C)Oc1nc2nc(C34COC(C)(C3)C4)cn2cc1C(=O)Nc1cccn(C(F)F)c1=O` [Example 388, N-(1-(difluoromethyl)-2-oxo-1,2-dihydropyridin-3-yl)-7-isopropoxy-2-(1-methyl-2-oxabicyclo[2.1.1]hexan-4-yl)imidazo[1,2-a]pyrimidine-6-carboxamide] here?
Its IC50 is 0.0002 µM.

same assay, conditions: IRAK4 Biochemical Assay (1 mM ATP, 2 h) IC50 (μM), 1 mM ATP, 2 h, 100 pM IRAK4

How did the IC50 turn out when `Cn1cccc(NC(=O)c2cn3cc(C4CC4)nc3c(OCCF)n2)c1=O` [Example 637, 2-Cyclopropyl-8-(2-fluoroethoxy)-N-(1-methyl-2-oxo-1,2-dihydropyridin-3-yl)imidazo[1,2-a]pyrazine-6-carboxamide trifluoroacetate] was run?
Its IC50 is 0.0445 µM.

With `CC(C)Oc1cc2nc(C34COC(C)(C3)C4)c(F)n2cc1C(=O)Nc1ccn(C)n1` [Example 327, 3-Fluoro-7-isopropoxy-N-(1-methyl-1H-pyrazol-3-yl)-2-(1-methyl-2-oxabicyclo[2.1.1]hexan-4-yl)imidazo[1,2-a]pyridine-6-carboxamide trifluoroacetate] as the molecule, how does the IC50 read?
Its IC50 is 0.0372 µM.

How did the IC50 turn out when `CC(C)Oc1cc2nc(C34COC(CF)(C3)C4)cn2cc1C(=O)Nc1cccc(C(F)F)n1` [Example 289, N-(6-(difluoromethyl)pyridin-2-yl)-2-(1-(fluoromethyl)-2-oxabicyclo[2.1.1]hexan-4-yl)-7-isopropoxyimidazo[1,2-a]pyridine-6-carboxamide] was run?
Its IC50 is 0.0002 µM.

With `CC(C)Oc1nc2nc(C3C4COCC43)cn2cc1C(=O)Nc1ccn(C)n1` (stereo not shown) [Example 396, 2-(3-Oxabicyclo[3.1.0]hexan-6-yl)-7-isopropoxy-N-(1-methyl-1H-pyrazol-3-yl)imidazo[1,2-a]pyrimidine-6-carboxamide formate] as the molecule, how does the IC50 read?
Its IC50 is 0.0076 µM.

`CC(C)Oc1nc2nc(C34COC(C)(C3)C4)cn2cc1C(=O)Nc1cccc(C2CCOC2)n1` (stereo not shown) [Example 359, 7-Isopropoxy-2-(1-methyl-2-oxabicyclo[2.1.1]hexan-4-yl)-N-(6-(tetrahydro-furan-3-yl)pyridin-2-yl)imidazo[1,2-a]pyrimidine-6-carboxamide trifluoroacetate] was tested. Which IC50 did it give?
The IC50 was 0.0009 µM.

For `CCOc1cc2nc(C3CN(CC(F)F)C3)cn2cc1C(=O)Nc1cccc(C(F)F)n1` [Example 90], which IC50 is on record?
The IC50 was 0.0015 µM.

For `COc1cccc(NC(=O)c2cn3cc(C45COC(CF)(C4)C5)nc3cc2OC)n1` [Example 7], which IC50 is on record?
The IC50 was 0.0166 µM.

Which IC50 does the source give for `CCc1cccc(NC(=O)c2cn3cc(C4CCOCC4)nc3cc2OC)n1` [Example 59] here?
The IC50 was 0.0137 µM.

With `COc1cccc(NC(=O)c2cn3cc(C45COC(C)(C4)C5)nc3cc2OC(C)C)n1` [Example 97, 7-Isopropoxy-N-(6-methoxypyridin-2-yl)-2-(1-methyl-2-oxabicyclo[2.1.1]hexan-4-yl)imidazo[1,2-a]pyridine-6-carboxamide] as the molecule, how does the IC50 read?
The IC50 was 0.0003 µM.
